Laboratory results: PMC10065799, “High-throughput profiling of sequence recognition by tyrosine kinases and SH2 domains using bacterial peptide display” (eLife, 2023)

Experiments:
Assay in all cases: pTyr-Var library bacterial peptide display kinase screen (enrichment scores)
EPHB2 kinase domain = type: biochemical, human; conditions: sheet EPHB2
c-Src kinase domain = c-Src kinase domain (Homo sapiens, UniProt P12931); type: biochemical; conditions: sheet "Src";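 note: log2 fold change in enrichment of variant over reference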
EPHB1 kinase domain = type: biochemical, human; conditions: for Screen: sheet EPHB1, effect of the variant peptide relative to its reference peptide in the pTyr-Var library screen (enrichment scores); for Screen (variant relative to reference peptide, measured in the pTyr-Var library screen): sheet "EPHB1", variant seq vs reference seq, bacterial peptide display enrichment
Fer kinase domain = type: biochemical, mouse; conditions: sheet "Fer"
c-Abl kinase domain = biological target: T1, c-Abl kinase domain (Mus musculus, UniProt P00520); type: biochemical;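 note: log2 fold change in enrichment of variant over reference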
T1 sequence (P00520 242-493 limits assumed): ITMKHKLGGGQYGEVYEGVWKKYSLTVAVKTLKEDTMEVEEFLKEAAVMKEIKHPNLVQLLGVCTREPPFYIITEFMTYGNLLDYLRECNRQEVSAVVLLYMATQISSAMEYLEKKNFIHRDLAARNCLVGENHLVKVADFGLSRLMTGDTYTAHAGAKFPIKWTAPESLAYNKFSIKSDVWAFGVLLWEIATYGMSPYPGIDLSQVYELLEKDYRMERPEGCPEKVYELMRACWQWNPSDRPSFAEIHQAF

[1] = effect of variant peptide relative to its reference peptide in the pTyr-Var library screen (enrichment scores)
[2] = variant peptide versus its reference peptide in the pTyr-Var library screen
[3] = value of the variant peptide against its reference peptide in the pTyr-Var library screen with Fer
[4] = variant peptide relative to its reference peptide, pTyr-Var library screen enrichment
[5] = effect of the variant peptide relative to its reference peptide in the pTyr-Var library screen
[6] = effect of the variant relative to its reference peptide in the pTyr-Var library screen
[7] = fig5-data2, sheet "Abl", Screen for the variant/reference peptide pair, pTyr-Var library
[8] = sheet "Abl", effect of variant peptide relative to its reference peptide in pTyr-Var library screen (enrichment)

Sequence	Screen (EPHB2 kinase domain; [1])	Screen (EPHB1 kinase domain)	Screen (Fer kinase domain; [3])	Screen (c-Src kinase domain; [5])	other results
AEARMYGVLPW [PLP1_Y207_D203E]	-1.308	–	–	–	Screen (c-Src kinase domain; [2]): -0.462
AQQPIYIRVEG [NLRP7_Y318_V319I]	-2.079	-2.185	–	–	Screen (c-Src kinase domain; [2]): -2.214
CGPLLYGLVHQ [PRKCG_Y122_S119P]	-0.1456	0.3123	-0.6662	–	Screen (c-Src kinase domain; [2]): -0.4426
CSEEMYCLMLQ [RET_Y981_R982C]	–	–	–	–	Screen (Fer kinase domain; [4]): 3.517; Screen (c-Src kinase domain; [2]): 1.894
DAKTIYDFTDT [PDK1_Y136_A134T]	-1.665	–	-1.776	–	Screen (c-Src kinase domain; [2]): -0.8148
FDGGCYEQLFV [MC4R_Y41_S36Y_YF]	–	–	0.1035	0.4972	–
FQNSLYAPDFS [FAM92A_Y226_R222Q_YF]	1.651	0.991	1.873	0.8192	–
FSPCDYQPCLA [TNS1_Y798_Y796C_YF]	–	–	–	–	Screen (EPHB2 kinase domain; [6]): 3.039; Screen (variant relative to reference peptide, measured in the pTyr-Var library screen) (EPHB1 kinase domain): 3.912
FTNELYMMMRD [FGFR1_Y730_C725Y_YF]	0.5582	0.7713	–	–	–
GGMTEYELVVV [KRAS_Y4_K5E]	–	–	4.104	–	–
GHLFAYDWIRI [BEST1_Y227_S231R_YF]	–	–	-0.2857	–	–
GQRDLYSGLNE [CD3E_Y199_Q204E]	-0.7383	-0.9821	-1.295	-0.3824	–
HESEIYGKVCF [CSRP3_Y57_C58G_YF]	–	–	1.394	-0.5157	–
HNLDFYKMTTN [FGFR3_Y648_K650M_YF]	0.0281	-1.054	-0.9943	-2.668	–
HSKGIYFVQLE [MGAT4B_Y262_Q257H_YF]	-0.5096	–	–	0.1036	Screen (c-Abl kinase domain; [7]): -0.4742
IEEGTYGVAFR [CDK11B_Y449_V452A_YF]	-1.778	-1.792	-0.4849	-0.1184	–
IGEVVYQWAVM [GRIN2A_Y502_R504W]	–	–	2.434	-0.09777	–
INQGPYENHSV [ATP6V1B1_Y462_R465H]	–	–	4.636	–	–
ITNLLYHLVGW [GBA_Y412_V414L]	-1.708	-1.095	0.1481	-0.6312	–
KEAQVYQAFRL [SUCLG2_Y343_K347R]	–	–	–	–	Screen (Fer kinase domain; [4]): 0.58; Screen (c-Src kinase domain; [2]): 0.6304
KFDLMYAKRAF [TUBA3E_Y399_W402R]	–	–	–	–	Screen (Fer kinase domain; [4]): -3.735; Screen (c-Src kinase domain; [2]): -2.285
KLPFLYDDPFS [GPX2_Y127_P126L_YF]	2.625	2.862	1.127	–	–
KLVQLYDVCTK [BTK_Y461_G462D]	2.907	3.126	2.534	0.2967	–
KRNSLYSFSDH [CCDC82_Y331_Q327R]	–	–	-2.294	-1.645	–
KVASVYEALGF [NT5C_Y65_P68L]	-0.4355	1.12	-0.5868	–	Screen (c-Src kinase domain; [2]): 0.2966
LAIELYVVVCK [RHO_Y136_R135L]	0.6623	1.06	–	–	–
LDTFIYDAAVL [GRIN2A_Y730_A727T]	-0.5027	-0.673	-0.1876	0.2901	–

Sequence	Screen (EPHB2 kinase domain; [1])	Screen (EPHB1 kinase domain)	Screen (Fer kinase domain; [3])	Screen (c-Src kinase domain; [5])	other results
LFEDCYLLGTS [ASS1_Y87_R86C_YF]	-0.8272	-1.767	–	2.612	–
LFEDRYLLGPS [ASS1_Y87_T91P_YF]	-0.4556	-1.226	–	–	–
LLIMEYAKFGS [RET_Y806_V804M_YF]	-0.7138	-1.009	–	–	Screen (c-Src kinase domain; [2]): 0.7851
LNCDRYSAGLL [PDE6A_Y275_V277A]	-1.197	–	–	–	–
LNEAVYTKMMT [G6PD_Y401_P396L]	2.035	1.441	1.268	0.3249	–
LPVHFYSHVEH [PYGM_Y204_G205S]	–	–	–	–	Screen (Fer kinase domain; [4]): -0.5676
LVIIKYLPEWT [PSEN1_Y240_F237I]	1.457	1.338	–	–	–
MVIPNYSSWTE [UROC1_Y185_R188W]	–	–	–	–	Screen (Fer kinase domain; [4]): 2.023; Screen (EPHB2 kinase domain; [6]): 4.793; Screen (variant relative to reference peptide, measured in the pTyr-Var library screen) (EPHB1 kinase domain): 4.533
NTFENYWPFFQ [GATM_Y103_K102N_YF]	3.46	4.344	–	2.256	–
PDSVDYPKKGF [CTSK_Y121_R122P_YF]	–	–	0.978	2.065	Screen (c-Abl kinase domain; [7]): -1.054
PFGQWYESHFA [RPS8_Y113_R110G_YF]	2.604	2.825	–	–	Screen (Fer kinase domain; [4]): 2.253; Screen (c-Src kinase domain; [2]): 2.137
PFRKLYESVKK [MKI67_Y241_W238R]	-2.876	-3.688	-1.869	-1.776	–
PLDNLYAEPAV [PRPS1_Y146_V142L]	0.4426	0.8585	0.1056	–	Screen (c-Src kinase domain; [2]): 0.376
PMFHSYVSLPF [PLXNA2_Y293_K289M]	0.8579	0.7871	–	–	Screen (c-Abl kinase domain; [7]): 0.1709
QKTGDYFDLFG [PTPN11_Y62_N58K_YF]	-1.66	-1.083	–	–	Screen (c-Src kinase domain; [2]): -1.277
QLQQAYQEAFE [YWHAZ_Y149_S145L]	–	–	–	–	Screen (Fer kinase domain; [4]): 1.389; Screen (c-Abl kinase domain; [8]): 2.922; Screen (EPHB2 kinase domain; [6]): 1.539
QRPFVYFFSFL [PTEN_Y176_R173P_YF]	–	–	-0.4962	–	–
QSSALYEDHFL [ASS1_Y83_R86H_YF]	1.176	0.2982	0.8014	0.1278	–
REVPVYTFSEP [FAM120B_Y368_D370Y_YF]	–	0.7576	3.619	3.398	–
RGKLFYQEVPA [METTL11B_Y76_A72G]	-1.191	-1.027	-1.394	–	–
RPPELYALMSD [ZAP70_Y569_C564R]	–	–	–	–	Screen (c-Abl kinase domain; [8]): 3.577; Screen (EPHB2 kinase domain; [6]): 1.779; Screen (variant relative to reference peptide, measured in the pTyr-Var library screen) (EPHB1 kinase domain): 2.108; Screen (c-Src kinase domain; [2]): 1.184
RQNQEYEILMD [KRT39_Y379_L383M]	0.3975	0.4118	–	–	–
SSPQLYLVPFL [TAF4_Y652_P651L]	2.197	–	–	–	Screen (variant relative to reference peptide, measured in the pTyr-Var library screen) (EPHB1 kinase domain): 3.351
TDIVAYSGWVQ [SPTBN2_Y477_R480W]	-2.35	–	–	–	–
TTGGFYSFGGG [KRT24_Y120_A115T_YF]	–	–	-0.6603	-0.1401	–
VDSAHYQLLET [DTX3L_Y385_K386Q]	–	–	3.227	–	–
VGTKWYMAPEV [ACVRL1_Y375_R374W]	2.182	2.34	–	–	–
